Measured values published in patent US5985937A, “Use of 2,4-distributed phenol derivatives as 5-lipoxygenase inhibitors” (priority 1994, dated 1999).

Tests used:
[1] = tested on: cyclooxygenase; settings: in words; cited from earlier work
[2] = tested on: seborrheic dermatitis; assay: treatment of dogs with seborrheic dermatitis; assay type: in vivo, dog; settings: 15 dogs (Cockers), phase I or II, 1 mg/kg.day p.o. plus 2% shampoo
Protocol: A total of 15 dogs (Cockers) suffering from seborrheic dermatitis in phase I or II were treated with doses of 1 mg/kg.day p.o. of Bobel-24, and were simultaneously washed with a shampoo containing 2% of the same product.

[3] = tested on: chronic intestinal pathology, chronic lymphoplasmocitary enteritis and hemorrhagic cholitis; assay: treatment of dogs with gastrointestinal diseases; assay type: in vivo, dog; settings: ten dogs, 1-2 mg/kg.day
Protocol: A total of ten dogs diagnosed chronic intestinal pathology, chronic lymphoplasmocitary enteritis (diagnosed through a biopsy and more than a year of evolution) and hemorrhagic cholitis, were treated with doses of 1-2 mg/kg.day of Bobel-24.

[4] = tested on: canine arthrosis; assay: clinical trial on canine arthrosis; assay type: in vivo, dog; set-up: key: +++: very good response, total recovery; ++: good response, functionability recovery; +: moderate response, improvement; -: negative response or no apparent improvement; settings: 4 mg/kg day orally, 45 days
Protocol: After the diagnosis, each animal was treated with Bobel capsules during 45 days, with a follow up every 15 days. Blood, synovial liquid and urine samples were taken at the beginning and at the end of the treatment in order to perform the following tests: Synovial liquid analysis (cytology, cytokines 1,6,8 and TNF); LTB4; LTC4; PGE2; hematic count and leukocyte content; standard serum biochemistry; urine sediment; Rose-Wealer test; and radiology control. The methodology for clinical validation involved applying evaluating uniform parameters and classifying the results according to the following notations: (+++)=very good response, total recovery; (++)=good response, functionability recovery; (+)=moderate response, improvement; (-)=negative response or no apparent improvement.

[5] = tested on: bursitis; assay: treatment of horses with bursitis; assay type: in vivo, horse; settings: seven young horses, 15 mg/day intraarticular infiltration
[6] = tested on: canine seborrheic dermatitis; assay: clinical trial on canine seborrheic dermatitis; assay type: in vivo, dog; set-up: key: +++: very good response, clinically cured; ++: good response, marked lowering in the clinical signs; +: moderate response, improvement; -: negative response or no apparent improvement; settings: weekly bath 2% shampoo, 15 days
Protocol: (§1) The animals had been diagnosed to suffer from seborrheic dermatitis, and the diagnosis was confirmed by a biopsy. The treatment consisted of a weekly bath with a 2% Bobel-24 shampoo and evaluation of the treatment after 15 days. The efficiency of the treatment was analyzed evaluating the following therapeutic symptoms; removal of scabs and scales, greasiness reduction, sheborrheic odor reduction, relieve of the pruritus, and antiinflammatory effect. […] In view of the results the following conclusions were reached: […]

[7] = tested on: canine seborrheic dermatitis; assay: clinical trial on canine seborrheic dermatitis; assay type: in vivo, dog; set-up: key: +++: very good response, total recovery; ++: good response, functionability recovery; +: moderate response, improvement; -: negative response or no apparent improvement; settings: weekly bath 2% shampoo, 15 days
Protocol: as §1

[8] = tested on: rheumatoid arthritis, hip dysplasia, equine cauda, deforming spondolitis or coxarthrosis; assay: treatment of dogs with articular or musculoskeletal diseases; assay type: in vivo, dog; settings: twenty dogs, oral 1-3 mg/kg.day
[9] = tested on: feline asthma; assay: treatment of cats with feline asthma; assay type: in vivo, cat; settings: 5 mg/day, cream applied to the leg and licked
[10] = tested on: dyspnea; assay: treatment of race horses with dyspnea; assay type: in vivo, horse; settings: eleven race horses, intravenous 50 mg/day, one week
Protocol: Eleven race horses manifesting dyspnea of variable degree, accompanied of great sensibility in the movements and, in the majority of the cases respiratory anxiety, coughs and mucous-purulent nasal flux, were treated with an intravenous dose of Bobel-24 of 50 mg/day during one week.

[11] = b363 Poodle 6, b364 Mongrel 14, b374 Mongrel 10, b376 Belgian shepherd 10, b382 Poodle 9, b392 Mongrel 5 years
[12] = b369 German shepherd 10, b377 Pekinese 11, b379 German shepherd 3 years

In the case of `Oc1c(I)cc(I)cc1I` [Bobel-24, 2,4,6-triiodophenol], the cyclooxygenase inhibiting activity [1] is listed as “some cyclooxygenase inhibiting activity”, the “disappearance of the dermatitis” value [2] is listed as “practically a total disappearance of the dermatitis” and the response [3] is listed as “responded very positively in a short time (1-2 weeks)”. For the same compound, the “Evolution, spondolytis” value ([4]; Doge 3 years) was “+++”, the “Evolution, broken muscle” value ([4]; German shepherd 2 years) was “+” and the “Evolution, generalized arthrosis” value ([4]; German shepherd 10 years) was “++”. The “Evolution, rotular arthrosis” value ([4]; Mongrel 14 years) was “++”, the “Evolution, degenerative arthrosis” value ([4]; Poodle 11 years) was “+++” and the “Evolution, broken crossed ligament” value ([4]; Poodle 15 years) was “+”. For the same compound, the “Evolution, equine cauda” value ([4]; b309 Mastif 11 years, b317 Mongrel 13 years) was “+++”, the “Evolution, arthrosis” value ([4]; b312 Rottwailer 1 year, b322 German shepherd 9 years) was “+++” and the reduction in inflammation [5] was “a reduction in the inflammation was obtained”. The “Evolution, etiology allergic” value [6, 11] was “++”, the “Evolution, etiology leishmania” value [6, 12] was “++” and the “Evolution, etiology allergic” value [7, 11] was “+”. For the same compound, the “Evolution, etiology leishmania” value [7, 12] was “+”, the response [8] was “very good response within 1 or 2 weeks” and the “results in feline asthma” value [9] was “satisfactory results in many cases”. For the same compound, the horses suffering relapse [10] was “None of the horses suffered relapse”, the improvement [10] was “The improvement was quite high” and the “time to disappearance of all the symptoms” value [10] was no more than 9 days. For the same compound, the “time to reincorporation to training, without any sequel” value [10] was 21 days.
